Source: patent publication US12590091B2, “1H-pyrrolo[3,2-C]pyridine and 1H-pyrrolo[2,3-C]pyridine derivatives as TLR9 inhibitors for the treatment of fibrosis” (BRISTOL-MYERS SQUIBB COMPANY, priority 2020, dated 2026)

Experiments:
[1] = target: T1, human TLR9 (Homo sapiens, UniProt Q9NR96); experiment: TLR9 inhibition reporter assay (HEK-Blue cells, SEAP reporter); type: cell-based; conditions: HEK-Blue cells overexpressing human TLR9, stimulated with ODN2006 5 nM, 22 hour incubation
T1 construct: host or cells: HEK-Blue cells
T1 sequence (Q9NR96 26-1032): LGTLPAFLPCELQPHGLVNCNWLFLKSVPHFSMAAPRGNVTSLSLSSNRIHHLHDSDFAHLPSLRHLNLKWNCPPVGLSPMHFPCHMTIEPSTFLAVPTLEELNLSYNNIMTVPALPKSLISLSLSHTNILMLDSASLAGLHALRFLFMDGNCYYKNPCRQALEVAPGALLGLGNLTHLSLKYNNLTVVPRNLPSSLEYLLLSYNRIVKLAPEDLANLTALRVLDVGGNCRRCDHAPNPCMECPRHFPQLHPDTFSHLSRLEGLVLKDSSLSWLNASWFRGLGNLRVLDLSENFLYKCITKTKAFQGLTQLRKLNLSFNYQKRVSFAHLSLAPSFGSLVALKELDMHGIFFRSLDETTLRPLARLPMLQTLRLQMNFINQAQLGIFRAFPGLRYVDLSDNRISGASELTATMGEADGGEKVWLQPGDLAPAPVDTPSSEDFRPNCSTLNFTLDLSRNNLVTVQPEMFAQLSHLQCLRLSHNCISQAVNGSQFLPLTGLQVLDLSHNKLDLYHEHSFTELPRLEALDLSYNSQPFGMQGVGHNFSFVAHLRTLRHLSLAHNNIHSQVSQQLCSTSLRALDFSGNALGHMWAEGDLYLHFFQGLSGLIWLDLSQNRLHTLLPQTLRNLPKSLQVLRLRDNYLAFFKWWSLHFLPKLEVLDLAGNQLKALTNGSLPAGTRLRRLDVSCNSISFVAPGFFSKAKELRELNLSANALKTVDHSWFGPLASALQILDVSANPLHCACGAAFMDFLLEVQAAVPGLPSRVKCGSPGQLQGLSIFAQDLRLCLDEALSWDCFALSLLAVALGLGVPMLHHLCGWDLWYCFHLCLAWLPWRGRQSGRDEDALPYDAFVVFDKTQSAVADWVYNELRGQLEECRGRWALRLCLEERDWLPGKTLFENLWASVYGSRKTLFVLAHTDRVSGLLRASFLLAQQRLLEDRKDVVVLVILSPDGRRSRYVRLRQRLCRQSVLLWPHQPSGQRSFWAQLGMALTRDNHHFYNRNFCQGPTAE
Summary of the method: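 Compound dose-response (0.05 nM–50 μM final) on agonist-stimulated human TLR9 HEK-Blue cells, 25,000/well, incubated 22 h at 37 °C, 5% CO2. Readout was secreted alkaline phosphatase under an IFN-β minimal promoter with NF-κB/AP-1 sites; inhibition expressed relative to DMSO and reference-inhibitor controls.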

[2] = target: T2, human TLR7 (Homo sapiens, UniProt Q9NYK1); experiment: TLR7 inhibition reporter assay (HEK-Blue cells, SEAP reporter); type: cell-based; conditions: HEK-Blue cells overexpressing human TLR7, stimulated with gardiquimod 7.5 μM, 22 hour incubation
T2 construct: host or cells: HEK-Blue cells
T2 sequence (Q9NYK1 27-1049): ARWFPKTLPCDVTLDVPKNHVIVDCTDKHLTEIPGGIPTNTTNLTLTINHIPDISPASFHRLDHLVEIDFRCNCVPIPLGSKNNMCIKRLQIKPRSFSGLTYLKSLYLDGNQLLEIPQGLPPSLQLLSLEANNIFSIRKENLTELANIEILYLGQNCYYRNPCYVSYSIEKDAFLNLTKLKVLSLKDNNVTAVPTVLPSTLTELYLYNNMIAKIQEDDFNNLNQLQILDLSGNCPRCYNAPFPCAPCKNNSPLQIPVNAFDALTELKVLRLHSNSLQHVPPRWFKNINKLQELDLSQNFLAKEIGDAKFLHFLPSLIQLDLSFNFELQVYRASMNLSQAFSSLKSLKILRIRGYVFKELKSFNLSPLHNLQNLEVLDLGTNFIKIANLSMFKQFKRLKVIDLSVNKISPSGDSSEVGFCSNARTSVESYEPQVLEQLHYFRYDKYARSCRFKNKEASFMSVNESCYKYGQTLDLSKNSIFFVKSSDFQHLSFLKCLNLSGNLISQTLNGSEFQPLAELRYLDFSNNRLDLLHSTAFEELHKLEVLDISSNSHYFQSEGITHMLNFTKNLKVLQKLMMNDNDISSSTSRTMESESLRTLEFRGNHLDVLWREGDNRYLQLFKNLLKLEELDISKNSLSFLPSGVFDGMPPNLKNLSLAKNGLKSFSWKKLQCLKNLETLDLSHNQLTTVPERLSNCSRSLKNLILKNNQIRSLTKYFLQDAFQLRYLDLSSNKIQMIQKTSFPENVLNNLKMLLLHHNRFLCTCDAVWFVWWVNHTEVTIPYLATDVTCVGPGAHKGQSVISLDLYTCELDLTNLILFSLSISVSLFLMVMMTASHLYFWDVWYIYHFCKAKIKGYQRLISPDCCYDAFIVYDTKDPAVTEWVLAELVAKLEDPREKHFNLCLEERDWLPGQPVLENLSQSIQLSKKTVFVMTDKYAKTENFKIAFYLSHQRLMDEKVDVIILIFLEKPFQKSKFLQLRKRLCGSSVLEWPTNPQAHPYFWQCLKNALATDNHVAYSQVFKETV
Protocol: TLR7/8/9 Inhibition Reporter Assays
HEK-Blue™-cells (Invivogen) overexpressing human TLR7, TLR8 or TLR9 receptors were used for screening inhibitors of these receptors using an inducible SEAP (secreted embryonic alkaline phosphatase) reporter gene under the control of the IFN-β minimal promoter fused to five NF-κB and AP-1-binding sites. Briefly, cells are seeded into Greiner 384 well plates (15000 cells per well for TLR7, 20,000 for TLR8 and 25,000 for TLR9) and then treated with test compounds in DMSO to yield a final dose response concentration range of 0.05 nM-50 μM. After a 30 minute compound pre-treatment at room temperature, the cells are then stimulated with a TLR7 ligand (gardiquimod at a final concentration of 7.5 μM), TLR8 ligand (R848 at a final concentration of 15.9 μM) or TLR9 ligand (ODN2006 at a final concentration of 5 nM) to activate NF-κB and AP-1 which induce the production of SEAP. After a 22 hour incubation at 37° C., 5% CO2, SEAP levels are determined with the addition of HEK-Blue™ Detection reagent (Invivogen), a cell culture medium that allows for detection of SEAP, according to manufacturer's specifications. The percent inhibition is determined as the % reduction in the HEK-Blue signal present in wells treated with agonist plus DMSO alone compared to wells treated with a known inhibitor.

| Compound | IC50 [1] | IC50 [2] |
| --- | --- | --- |
| Cc1nc(-c2ccc(CN3CCN(CC(C)(C)O)CC3)cc2)cc2c1cc(-c1ccc(S(C)(=O)=O)cc1)n2C [Example 44, 1-(4-(4-(1,4-Dimethyl-2-(4-(methylsulfonyl)phenyl)-1H-pyrrolo[3,2-c]pyridin-6-yl)benzyl)piperazin-1-yl)-2-methylpropan-2-ol] | 96 nM | 640 nM |
| COCCN1C2CCC1CN(c1cc(F)c(-c3cc4c(cc(-c5ccc(S(C)(=O)=O)cc5)n4C)c(C)n3)cc1F)C2 [Example 78, 6-(2,5-difluoro-4-(8-(2-methoxyethyl)-3,8-diazabicyclo[3.2.1]octan-3-yl)phenyl)-1,4-dimethyl-2-(4-(methylsulfonyl)phenyl)-1H-pyrrolo[3,2-c]pyridine] | 147 nM | 2700 nM |
| COc1ccc(-c2cc3cnc(-c4ccc(N5CCN(C(C)C)CC5)nc4)cc3n2C)cc1OC [Example 31, 2-(3,4-dimethoxyphenyl)-6-(6-(4-isopropylpiperazin-1-yl)pyridin-3-yl)-1-methyl-1H-pyrrolo[3,2-c]pyridine] | 72 nM | 1500 nM |
| Cc1nc(-c2ccc(CN3CCC(C)(O)CC3)cc2)cc2c1cc(-c1ccc(S(C)(=O)=O)cc1)n2C [Example 59, 1-(4-(1,4-dimethyl-2-(4-(methylsulfonyl)phenyl)-1H-pyrrolo[3,2-c]pyridin-6-yl)benzyl)-4-methylpiperidin-4-ol] | 772 nM | 12900 nM |
| COc1ccc(-c2c(C)[nH]c3cnc(C4CCN(c5cc(C)nc(C)c5)CC4)cc23)cc1OC [Example 6, 3-(3,4-Dimethoxyphenyl)-5-(1-(2,6-dimethylpyridin-4-yl)piperidin-4-yl)-2-methyl-1H-pyrrolo[2,3-c]pyridine] | 296 nM | 8000 nM |
| Cc1nc(-c2ccc(C3(O)CC4CCC(C3)N4C(C)C)c(F)c2)cc2c1cc(-c1ccc(S(C)(=O)=O)cc1)n2C [Example 100, (1R,3r,5S)-3-(4-(1,4-dimethyl-2-(4-(methylsulfonyl)phenyl)-1H-pyrrolo[3,2-c]pyridin-6-yl)-2-fluorophenyl)-8-isopropyl-8-azabicyclo[3.2.1]octan-3-ol] | 184 nM | 7100 nM |
| Cc1nc(-c2cc(F)c(N3CCN(CCCO)CC3)cc2F)cc2c1cc(-c1ccc(S(C)(=O)=O)cc1)n2C [Example 56, 3-(4-(4-(1,4-dimethyl-2-(4-(methylsulfonyl)phenyl)-1H-pyrrolo[3,2-c]pyridin-6-yl)-2,5-difluorophenyl)piperazin-1-yl)propan-1-ol] | 270 nM | 18500 nM |
| Cc1nc(-c2ccc(N3CC4CCC(C3)N4CCCO)c(F)c2)cc2c1cc(-c1ccc(S(C)(=O)=O)cc1)n2C [Example 77, 3-(3-(4-(1,4-dimethyl-2-(4-(methylsulfonyl)phenyl)-1H-pyrrolo[3,2-c]pyridin-6-yl)-2-fluorophenyl)-3,8-diazabicyclo[3.2.1]octan-8-yl)propan-1-ol] | 126 nM | 1900 nM |
| Cc1nc(-c2ccc(C3(O)CCN(C(C)C)CC3)cc2)cc2c1cc(-c1ccc(S(C)(=O)=O)cc1)n2C [Example 88, 4-(4-(1,4-dimethyl-2-(4-(methylsulfonyl)phenyl)-1H-pyrrolo[3,2-c]pyridin-6-yl)phenyl)-1-isopropylpiperidin-4-ol] | 114 nM | 6500 nM |
| Cc1nc(-c2ccc(C3(O)CC4CCC(C3)N4C)c(F)c2)cc2c1cc(-c1ccc(S(C)(=O)=O)cc1)n2C [Example 102, (1R,3r,5S)-3-(4-(1,4-dimethyl-2-(4-(methylsulfonyl)phenyl)-1H-pyrrolo[3,2-c]pyridin-6-yl)-2-fluorophenyl)-8-methyl-8-azabicyclo[3.2.1]octan-3-ol] | 127 nM | 5500 nM |
| COc1ccc(-c2c(C)n(C)c3cnc(-c4ccc(N5CCN(CC(C)(C)O)CC5)cc4)cc23)cc1OC [Example 3, 1-(4-(4-(3-(3,4-Dimethoxyphenyl)-1,2-dimethyl-1H-pyrrolo[2,3-c]pyridin-5-yl)phenyl)piperazin-1-yl)-2-methylpropan-2-ol] | 82 nM | 3300 nM |
| CC(C)(O)CN1CC2CCC(C1)N2Cc1ccc(-c2cc3c(cn2)cc(-c2ccc(S(C)(=O)=O)cc2)n3C2CC2)cc1 [Example 130, 1-(8-(4-(1-cyclopropyl-2-(4-(methylsulfonyl)phenyl)-1H-pyrrolo[3,2-c]pyridin-6-yl)benzyl)-3,8-diazabicyclo[3.2.1]octan-3-yl)-2-methylpropan-2-ol] | 92 nM | 1900 nM |
| COc1ccc(-c2c(C)n(C)c3cnc(C4CCN(C5CCN(C(=O)C(C)C)CC5)CC4)cc23)cc1OC [Example 18, 1-(4-(3-(3,4-dimethoxyphenyl)-1,2-dimethyl-1H-pyrrolo[2,3-c]pyridin-5-yl)-[1,4′-bipiperidin]-1′-yl)-2-methylpropan-1-one] | 194 nM | 13600 nM |
| CCN1C2CCC1CC(O)(c1ccc(-c3cc4c(cc(-c5ccc(S(C)(=O)=O)cc5)n4C)c(C)n3)cc1F)C2 [Example 101, (1R,3r,5S)-3-(4-(1,4-dimethyl-2-(4-(methylsulfonyl)phenyl)-1H-pyrrolo[3,2-c]pyridin-6-yl)-2-fluorophenyl)-8-ethyl-8-azabicyclo[3.2.1]octan-3-ol] | 116 nM | 5700 nM |
| Cc1nc(C2CCN(C3CC4CCC(C3)N4CC(C)C)CC2)cc2c1cc(-c1ccc(S(C)(=O)=O)cc1)n2C (centres unmarked) [Example 114, 6-(1-(8-isobutyl-8-azabicyclo[3.2.1]octan-3-yl)piperidin-4-yl)-1,4-dimethyl-2-(4-(methylsulfonyl)phenyl)-1H-pyrrolo[3,2-c]pyridine] | 47 nM | 14200 nM |
| COc1ccc(-c2cc3cnc(-c4ccc(N5CCN(C(=O)c6ccccc6)CC5)cc4)cc3n2C)cc1OC [Example 29, (4-(4-(2-(3,4-dimethoxyphenyl)-1-methyl-1H-pyrrolo[3,2-c]pyridin-6-yl)phenyl)piperazin-1-yl)(phenyl)methanone] | 399 nM | 14400 nM |
